The results in this text go back to patent publication US5428059A, “Benzopyran derivatives and an anti-allergic agent possessing the same as the active ingredient” (Dainippon Ink & Chemicals, Inc., priority 1991, dated 1995).

This test concerns Hartley-type male guinea pigs. In words: Guinea Pig Homogeneous Skin Passive Anaphylaxis Assay (PCA reaction). It counts as in vivo, guinea pig (Hartley-type). Conditions: Cavia porcellus, 10 mg/kg oral, 48 h after sensitization, read-out: Allergic reaction inhibitory index (%). The method in brief:
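Male Hartley guinea pigs (250~300 g) given intradermal back injections of 120-fold-diluted anti-OVA serum; 48 h later test substance dosed orally at 10 mg/kg, then challenged i.v. with OVA plus Evans Blue. Dye-spot area (long × short diameter, mm^2) measured at 30 min; inhibition % calculated against solvent control.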

`CCCCCCCCCCOc1cccc2oc(=O)c(OC(=O)c3ccccc3)c(O)c12` [Compound 229, 3-(benzoyloxy)-4-hydroxy-5-(decyloxy)-2H-1-benzopyran-2-one]: the inhibition in vivo at 10 mg/kg is 37%. The same measure for `CCCCCCCCCCOc1cccc2oc(=O)c(O)c(O)c12` [Compound 230, 3,4-(dihydroxy)-5-(decyloxy)-2H-1-benzopyran-2-one]: 43%.

In the case of `CCCCCCCCCCOc1cccc2oc(=O)c(O)c(OC(C)=O)c12` [Compound 231, 3-hydroxy-4-(acetoxy)-5-(decyloxy)-2H-1-benzopyran-2-one], the inhibition in vivo at 10 mg/kg was 31%.

As for `CCCCCCCCCCOc1cccc2oc(=O)c(OC(C)=O)c(OC(=O)c3ccccc3)c12` [Compound 232, 3-(acetoxy)-4-(benzoyloxy)-5-(decyloxy)-2H-1-benzopyran-2-one], the inhibition in vivo at 10 mg/kg worked out at 32%.

For the molecule `CCCCCCCCCCOc1cccc2oc(=O)c(OC(C)C)c(O)c12` [Compound 233, 3-(isopropoxy)-4-hydroxy-5-(decyloxy)-2H-1-benzopyran-2-one], the inhibition in vivo at 10 mg/kg came to 39%. The same measure for `CCCCCCCCCCOc1cccc2oc(=O)c(O)c(OCCCC)c12` [Compound 234, 3-hydroxy-4-(butoxy)-5-(decyloxy)-2H-1-benzopyran-2-one]: 33%. The same measure for `CCCCCCCCCCOc1cccc2oc(=O)c(OC(C)=O)c(OC(C)C)c12` [Compound 235, 3-(acetoxy)-4-(isopropoxy)-5-(decyloxy)-2H-1-benzopyran-2-one]: 30%; for `CCCCCCCCCCOc1cccc2oc(=O)c(OC)c(OC(=O)c3ccccc3)c12` [Compound 236, 3-(methoxy)-4-(benzoyloxy)-5-(decyloxy)-2H-1-benzopyran-2-one]: 31%; for `CCCCCCCCCCOc1cccc2oc(=O)c(OC/C=C(\C)CCC=C(C)C)c(O)c12` [Compound 237, 3-(geranyloxy)-4-hydroxy-5-(decyloxy)-2H-1-benzopyran-2-one]: 34%. `CCCCCCCCCCOc1cccc2oc(=O)c(O)c(OC/C=C(\C)CCC=C(C)C)c12` [Compound 238, 3-hydroxy-4-(geranyloxy)-5-(decyloxy)-2H-1-benzopyran-2-one]: the inhibition in vivo at 10 mg/kg was found to be 33%. The same measure for `CCCCCCCCCCOc1cccc2oc(=O)c(OC/C=C(\C)CCC=C(C)C)c(OC(C)=O)c12` [Compound 239, 3-(geranyloxy)-4-(acetoxy)-5-(decyloxy)-2H-1-benzopyran-2-one]: 31%; for `CCCCCCCCCCOc1cccc2oc(=O)c(OC(=O)c3ccccc3)c(OC/C=C(\C)CCC=C(C)C)c12` [Compound 240, 3-(benzoyloxy)-4-(geranyloxy)-5-(decyloxy)-2H-1-benzopyran-2-one]: 30%; for `CCCCCCCCCCOc1cccc2oc(=O)c(OC/C=C(\C)CCC=C(C)C)c(OC)c12` [Compound 241, 3-(geranyloxy)-4-(methoxy)-5-(decyloxy)-2H-1-benzopyran-2-one]: 32%.

As for `CCCCCCCCCCOc1cccc2oc(=O)c(OC(C)C)c(OC/C=C(\C)CCC=C(C)C)c12` [Compound 242, 3-(isopropoxy)-4-(geranyloxy)-5-(decyloxy)-2H-1-benzopyran-2-one], the inhibition in vivo at 10 mg/kg was 30%. For `CCCCCCCCCCOc1cccc2oc(=O)c(OC/C=C(\C)CCC=C(C)C)c(OC/C=C(\C)CCC=C(C)C)c12` [Compound 243, 3,4-(digeranyloxy)-5-(decyloxy)-2H-1-benzopyran-2-one], the inhibition in vivo at 10 mg/kg came to 31%. The same measure for `CC(C)=CCC/C(C)=C/COc1cccc2oc(=O)c(OC(=O)c3ccccc3)c(O)c12` [Compound 244, 3-(benzoyloxy)-4-hydroxy-5-(geranyloxy)-2H-1-benzopyran-2-one]: 33%; for `CC(C)=CCC/C(C)=C/COc1cccc2oc(=O)c(O)c(O)c12` [Compound 245, 3,4-(dihydroxy)-5-(geranyloxy)-2H-1-benzopyran-2-one]: 37%. The value for `CC(=O)Oc1c(O)c(=O)oc2cccc(OC/C=C(\C)CCC=C(C)C)c12` [Compound 246, 3-hydroxy-4-(acetoxy)-5-(geranyloxy)-2H-1-benzopyran-2-one] was 30%; that for `CC(=O)Oc1c(OC(=O)c2ccccc2)c(=O)oc2cccc(OC/C=C(\C)CCC=C(C)C)c12` [Compound 247, 3-(benzoyloxy)-4-(acetoxy)-5-(geranyloxy)-2H-1-benzopyran-2-one] was 34%; that for `COc1c(O)c2c(OC/C=C(\C)CCC=C(C)C)cccc2oc1=O` [Compound 248, 3-(methoxy)-4-hydroxy-5-(geranyloxy)-2H-1-benzopyran-2-one] was 35%. For the molecule `CC(C)=CCC/C(C)=C/COc1cccc2oc(=O)c(O)c(OC(C)C)c12` [Compound 249, 3-hydroxy-4-(isopropoxy)-5-(geranyloxy)-2H-1-benzopyran-2-one], the inhibition in vivo at 10 mg/kg was 32%. The same measure for `CCCCCCCCCCOc1c(OC(C)C)c2c(OC/C=C(\C)CCC=C(C)C)cccc2oc1=O` [Compound 250, 3-(decyloxy)-4-(isopropoxy)-5-(geranyloxy)-2H-1-benzopyran-2-one]: 31%; for `CC(C)=CCC/C(C)=C/COc1cccc2oc(=O)c(OC(=O)c3ccccc3)c(OC(C)C)c12` [Compound 251, 3-(benzoyloxy)-4-(isopropoxy)-5-(geranyloxy)-2H-1-benzopyran-2-one]: 30%; for `COc1c(OC(C)=O)c2c(OC/C=C(\C)CCC=C(C)C)cccc2oc1=O` [Compound 252, 3-(methoxy)-4-(acetoxy)-5-(geranyloxy)-2H-1-benzopyran-2-one]: 32%. Regarding `CC(C)=CCC/C(C)=C/COc1c(O)c2c(OC/C=C(\C)CCC=C(C)C)cccc2oc1=O` [Compound 253, 3,5-(digeranyloxy)-4-hydroxy-2H-1-benzopyran-2-one], the inhibition in vivo at 10 mg/kg was 33%. On to `CC(C)=CCC/C(C)=C/COc1cccc2oc(=O)c(O)c(OC/C=C(\C)CCC=C(C)C)c12` [Compound 254, 3-hydroxy-4,5-(digeranyloxy)-2H-1-benzopyran-2-one], for which the inhibition in vivo at 10 mg/kg amounted to 30%. The value for `CC(=O)Oc1c(OC/C=C(\C)CCC=C(C)C)c(=O)oc2cccc(OC/C=C(\C)CCC=C(C)C)c12` [Compound 255, 3,5-(digeranyloxy)-4-(acetoxy)-2H-1-benzopyran-2-one] was 33%. The same measure for `CC(C)=CCC/C(C)=C/COc1cccc2oc(=O)c(OC(=O)c3ccccc3)c(OC/C=C(\C)CCC=C(C)C)c12` [Compound 256, 3-(benzoyloxy)-4,5-(digeranyloxy)-2H-1-benzopyran-2-one]: 30%; for `COc1c(OC/C=C(\C)CCC=C(C)C)c(=O)oc2cccc(OC/C=C(\C)CCC=C(C)C)c12` [Compound 257, 3,5-(digeranyloxy)-4-(methoxy)-2H-1-benzopyran-2-one]: 31%; for `CC(C)=CCC/C(C)=C/COc1cccc2oc(=O)c(OC(C)C)c(OC/C=C(\C)CCC=C(C)C)c12` [Compound 258, 3-(isopropoxy)-4,5-(digeranyloxy)-2H-1-benzopyran-2-one]: 32%. The same measure for `O=C(Oc1c(O)c2cc(O)ccc2oc1=O)c1ccccc1` [Compound 262, 3-(benzoyloxy)-4,6-(dihydroxy)-2H-1-benzopyran-2-one]: 30%; for `O=c1oc2ccc(O)cc2c(O)c1O` [Compound 263, 3,4,6-trihydroxy-2H-1-benzopyran-2-one]: 42%.

Regarding `CC(=O)Oc1c(O)c2cc(O)ccc2oc1=O` [Compound 264, 3-(acetoxy)-4,6-(dihydroxy)-2H-1-benzopyran-2-one], the inhibition in vivo at 10 mg/kg came out at 36%. The value for `COc1c(O)c2cc(O)ccc2oc1=O` [Compound 265, 3-(methoxy)-4,6-(dihydroxy)-2H-1-benzopyran-2-one] was 37%; that for `CCCCCCCCCCOc1c(O)c2cc(O)ccc2oc1=O` [Compound 266, 3-(decyloxy)-4,6-(dihydroxy)-2H-1-benzopyran-2-one] was 33%; that for `COc1c(O)c(=O)oc2ccc(O)cc12` [Compound 267, 3,6-(dihydroxy)-4-(methoxy-2H-1-benzopyran-2-one] was 34%. On to `CCCCCCCCCCOc1c(O)c(=O)oc2ccc(O)cc12` [Compound 268, 3,6-(dihydroxy)-4-(decyloxy)-2H-1-benzopyran-2-one], for which the inhibition in vivo at 10 mg/kg stood at 33%. The same measure for `COc1ccc2oc(=O)c(O)c(O)c2c1` [Compound 272, 3,4-(dihydroxy)-6-(methoxy)-2H-1-benzopyran-2-one]: 30%; for `CCCCCCCCCCOc1ccc2oc(=O)c(O)c(O)c2c1` [Compound 273, 3,4-(dihydroxy)-6-(decyloxy)-2H-1-benzopyran-2-one]: 30%. The same measure for `CCCCCCCCCCOc1c(O)c2cc(OC)ccc2oc1=O` [Compound 274]: 35%; for `CCCCCCCCCCOc1ccc2oc(=O)c(OC)c(O)c2c1` [Compound 275, 3-(methoxy)-4-(hydroxy)-6-(decyloxy)-2H-1-benzopyran-2-one]: 36%; for `CCCCCCCCCCOc1c(O)c(=O)oc2ccc(OC)cc12` [Compound 276, 3-(hydroxy)-4-(decyloxy)-6-(methoxy)-2H-1-benzopyran-2-one]: 34%. The same measure for `CCCCCCCCCCOc1ccc2oc(=O)c(O)c(OC)c2c1` [Compound 277, 3-(hydroxy)-4-(methoxy)-6-(decyloxy)-2H-1-benzopyran-2-one]: 35%. As to `COc1ccc2oc(=O)c(OC(C)=O)c(O)c2c1` [Compound 278, 3-(acetoxy)-4-(hydroxy)-6-(methoxy)-2H-1-benzopyran-2-one], the inhibition in vivo at 10 mg/kg came to 36%.
